These are literature values, as cited in patent US6958144B2, “Methods of whitening teeth” (Britesmile Development, Inc., priority 1995, dated 2005).

SMILES strings stand for the structures.

The conditions of the data set: 10% carbamide peroxide solution, background statement.

In the case of `NC(N)=O.OO` [carbamide peroxide], the “equilibrium pH” value was “approximately 3.45”.
